From paper PMC4509514, “Saccharomyces cerevisiae Ski7 Is a GTP-Binding Protein Adopting the Characteristic Conformation of Active Translational GTPases” (Structure(London, England:1993), 2015)

Target: T1, Ski7C (Saccharomyces cerevisiae, UniProt Q08491)
T1 construct: gene SKI7; C-terminal GTPase-like region, residues 254-747; N-terminal thioredoxin tag cut with PreScission; expressed in E. coli BL21; one molecule per asymmetric unit (SeMet form for phasing)
T1 sequence (Q08491 254-747): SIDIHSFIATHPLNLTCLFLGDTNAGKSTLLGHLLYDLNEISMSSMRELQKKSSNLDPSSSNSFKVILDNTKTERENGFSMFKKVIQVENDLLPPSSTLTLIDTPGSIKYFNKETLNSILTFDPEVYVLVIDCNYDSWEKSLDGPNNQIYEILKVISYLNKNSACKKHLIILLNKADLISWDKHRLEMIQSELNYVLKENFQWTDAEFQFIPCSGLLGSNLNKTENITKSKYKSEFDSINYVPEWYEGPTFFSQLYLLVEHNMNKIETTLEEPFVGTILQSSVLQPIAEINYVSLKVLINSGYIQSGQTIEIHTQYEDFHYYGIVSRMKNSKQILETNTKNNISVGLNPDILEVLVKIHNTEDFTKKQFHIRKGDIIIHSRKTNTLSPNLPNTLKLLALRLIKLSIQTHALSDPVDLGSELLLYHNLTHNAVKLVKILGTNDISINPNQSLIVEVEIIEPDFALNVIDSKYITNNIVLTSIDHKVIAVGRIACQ
Assay: thermal shift (Thermofluor)
Format: binding
Conditions: nucleotide analog added during alkaline phosphatase treatment; nucleotide-free protein as reference

SMILES | Tm [°C]
Nc1nc2c(ncn2[C@@H]2O[C@H](COP(=O)(O)OP(=O)(O)NP(=O)(O)O)[C@@H](O)[C@H]2O)c(=O)[nH]1 [GMPPNP] | 47.6
Nc1nc2c(ncn2[C@@H]2O[C@H](COP(=O)(O)CP(=O)(O)O)[C@@H](O)[C@H]2O)c(=O)[nH]1 [GMPCP] | 44.0
